What all share (experiment): fluorescence titration of purified protein, hyperbolic fit, […]°C
The target in test [1] is T1, drFabp2 (intestinal fatty acid binding protein) (Danio rerio, UniProt A0A8M1P5F0, K17A/K30A/R29A).
T1 construct: gene fabp2; Full-length mutant, recombinant from E. coli BL21 (DE3), delipidated (apo)

The target in test [2] is T2, drFabp2 (intestinal fatty acid binding protein) (Danio rerio, UniProt A0A8M1P5F0, K17A/K28A/R29A).
T2 construct: gene fabp2; Full-length mutant, recombinant from E. coli BL21 (DE3), delipidated (apo)
T2 sequence (A0A8M1P5F0 entry or part of it K17A/K28A/R29A): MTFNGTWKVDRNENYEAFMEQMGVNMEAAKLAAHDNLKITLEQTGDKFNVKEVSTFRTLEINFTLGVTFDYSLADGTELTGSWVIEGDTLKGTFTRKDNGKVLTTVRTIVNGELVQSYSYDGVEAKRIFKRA

Test [3] concerns the target T3, drFabp2 (intestinal fatty acid binding protein) (Danio rerio, UniProt A0A8M1P5F0).
T3 construct: gene fabp2; Full-length wild-type, recombinant from E. coli BL21 (DE3), delipidated (apo)
T3 sequence (A0A8M1P5F0 1-132): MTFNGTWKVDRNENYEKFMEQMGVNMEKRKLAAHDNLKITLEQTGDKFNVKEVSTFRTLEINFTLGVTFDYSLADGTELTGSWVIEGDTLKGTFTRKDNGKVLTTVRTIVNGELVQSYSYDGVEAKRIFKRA

T1 sequence (A0A8M1P5F0 entry or part of it K17A/R29A/K30A): as the sequence (A0A8M1P5F0 entry or part of it K17A/K28A/R29A) above, with A28K, K30A counted along it

As to `CC1=CC(C)=[N+]2C1=Cc1ccc(CCCCCCCCCCCCCCCC(=O)O)n1[B-]2(F)F` [BODIPY FL C16], the figures for the Kd in test [1], in test [2] and in test [3] were 129 nM, 112 nM and 160 nM, respectively.

The Kd is the constant that tells how readily two partners part at equilibrium. Lower therefore signals higher affinity.
